Results from patent publication EP1267867B1, “USE OF PROSTANOID EP4 RECEPTOR ANTAGONISTS FOR THE TREATMENT OF HEADACHE AND ASSAYS FOR SUCH ANTAGONISTS” (ASTERAND UK LIMITED, priority 2000, dated 2001).

Key:
[1] = molecular target: T1, EP4 receptors (Sus scrofa, UniProt I3LLK4); conditions: antagonism of PGE2-induced relaxation of piglet saphenous vein through blockade of EP4 receptors; cited from earlier work
T1 construct: providing a natural source of the receptors, such as piglet saphenous vein; host or cells: piglet saphenous vein rings (tissue, endogenous receptor)
T1 sequence (I3LLK4 1-489): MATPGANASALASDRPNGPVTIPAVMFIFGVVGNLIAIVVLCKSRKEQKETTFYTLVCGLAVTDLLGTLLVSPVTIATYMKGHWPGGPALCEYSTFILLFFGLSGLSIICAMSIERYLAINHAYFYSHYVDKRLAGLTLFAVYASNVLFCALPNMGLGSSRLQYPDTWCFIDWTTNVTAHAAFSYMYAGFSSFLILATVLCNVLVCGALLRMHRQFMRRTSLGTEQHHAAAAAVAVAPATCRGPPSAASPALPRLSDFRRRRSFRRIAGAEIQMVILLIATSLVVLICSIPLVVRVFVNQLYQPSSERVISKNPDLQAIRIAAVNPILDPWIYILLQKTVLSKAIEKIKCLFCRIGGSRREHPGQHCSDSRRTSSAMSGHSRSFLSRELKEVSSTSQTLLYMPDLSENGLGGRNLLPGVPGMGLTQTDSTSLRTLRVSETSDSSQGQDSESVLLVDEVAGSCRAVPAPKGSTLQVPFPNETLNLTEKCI

[2] = molecular target: T2, EP1 (Homo sapiens, UniProt P34995); conditions: cited from earlier work
T2 sequence (P34995 1-402): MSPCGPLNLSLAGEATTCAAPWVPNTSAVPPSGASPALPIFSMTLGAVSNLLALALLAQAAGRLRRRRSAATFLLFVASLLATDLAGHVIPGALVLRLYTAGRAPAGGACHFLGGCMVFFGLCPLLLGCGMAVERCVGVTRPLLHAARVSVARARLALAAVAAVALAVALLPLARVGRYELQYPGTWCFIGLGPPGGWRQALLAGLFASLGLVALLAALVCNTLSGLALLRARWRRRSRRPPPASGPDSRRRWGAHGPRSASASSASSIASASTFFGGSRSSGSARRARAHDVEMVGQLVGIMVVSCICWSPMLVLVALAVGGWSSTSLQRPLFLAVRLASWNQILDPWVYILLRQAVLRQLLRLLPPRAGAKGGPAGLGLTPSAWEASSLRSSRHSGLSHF

[3] = molecular target: EP2 (Homo sapiens, UniProt P43116); conditions: cited from earlier work
Chain of EP2 (P43116 whole entry): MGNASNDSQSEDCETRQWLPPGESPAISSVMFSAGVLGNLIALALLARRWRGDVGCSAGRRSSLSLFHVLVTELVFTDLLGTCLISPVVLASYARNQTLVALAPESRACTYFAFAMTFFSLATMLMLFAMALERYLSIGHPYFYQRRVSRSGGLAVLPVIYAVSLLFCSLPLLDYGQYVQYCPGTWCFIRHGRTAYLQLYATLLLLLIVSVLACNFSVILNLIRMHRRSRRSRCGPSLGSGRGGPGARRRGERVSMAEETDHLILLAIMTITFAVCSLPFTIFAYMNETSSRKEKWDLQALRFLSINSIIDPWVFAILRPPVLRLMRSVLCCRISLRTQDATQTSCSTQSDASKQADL

[4] = molecular target: T3, EP3 (Homo sapiens, UniProt P43115); conditions: cited from earlier work
T3 sequence (P43115 1-390): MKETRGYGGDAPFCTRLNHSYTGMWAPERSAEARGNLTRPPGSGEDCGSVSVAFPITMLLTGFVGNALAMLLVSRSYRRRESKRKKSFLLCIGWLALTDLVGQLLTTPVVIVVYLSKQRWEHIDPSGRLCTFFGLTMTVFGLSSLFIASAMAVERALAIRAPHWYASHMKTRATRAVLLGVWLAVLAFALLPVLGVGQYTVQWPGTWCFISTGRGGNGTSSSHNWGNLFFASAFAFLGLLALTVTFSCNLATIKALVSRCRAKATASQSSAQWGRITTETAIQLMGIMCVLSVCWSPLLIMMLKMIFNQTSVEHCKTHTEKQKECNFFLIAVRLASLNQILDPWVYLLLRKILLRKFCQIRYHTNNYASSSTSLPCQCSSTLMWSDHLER

[5] = molecular target: T4, EP4 receptor (Homo sapiens, UniProt P35408); assay: Antagonism of PGE2-mediated relaxation of phenylephrine pre-contracted middle cerebral artery rings; type: cell-based; conditions: 10 mM AH23848, 45 mins preincubation, P=0.004, 2 tailed T-Test
T4 construct: Intact rings of this cerebral artery, 2-3mm in length, were set up under isometric conditions; from tissue; host or cells: human middle cerebral artery rings (one donor)
T4 sequence (P35408 whole entry): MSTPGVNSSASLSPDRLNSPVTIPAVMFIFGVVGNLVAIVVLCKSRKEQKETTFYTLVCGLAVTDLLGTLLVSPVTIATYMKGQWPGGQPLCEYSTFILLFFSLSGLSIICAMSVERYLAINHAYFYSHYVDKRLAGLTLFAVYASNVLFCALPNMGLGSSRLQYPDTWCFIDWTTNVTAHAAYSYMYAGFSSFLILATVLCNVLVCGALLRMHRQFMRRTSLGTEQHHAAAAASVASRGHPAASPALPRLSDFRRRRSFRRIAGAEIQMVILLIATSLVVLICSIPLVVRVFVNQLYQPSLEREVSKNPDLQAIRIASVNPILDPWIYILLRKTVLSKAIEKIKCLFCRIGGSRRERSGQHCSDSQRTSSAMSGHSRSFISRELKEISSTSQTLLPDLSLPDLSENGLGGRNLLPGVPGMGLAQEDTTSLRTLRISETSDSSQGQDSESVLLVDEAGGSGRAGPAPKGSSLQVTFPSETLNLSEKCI
Description: (§1) Sections of cerebral artery were removed from different regions of preparations of human cerebral vasculature containing an intact circle of Willis. Intact rings of this cerebral artery, 2-3mm in length, were set up under isometric conditions in 10 ml organ baths under an initial tension of 1g. All tissues were maintained at 37°C and gassed constantly with 95% O2 / 5% CO2. Following a 90 min equilibration period all tissues were challenged with phenylephrine (1 µM), to determine tissue viability. Once a stable contraction had been obtained, tissues were exposed to a range of prostanoid receptor agonists, in the absence or presence of receptor antagonists, to determine the functional role of prostanoid receptors in maintaining arterial tone.
To test the effect of the EP4 receptor antagonist AH23848, cerebral rings were preincubated for 45 mins with 10 mM AH23848.

[6] = test system: human cerebral artery rings; assay: Prostanoid agonist effects on isolated human cerebral artery rings (organ bath, isometric tension); type: cell-based; conditions: for effect on human cerebral artery rings contracted with phenylephrine: smaller diameter vessels, phenylephrine (1 µM), GR32191 (1 µM) present to block TP-receptors, Figures 3-5
Description: as §1

[7] = test system: pulmonary artery; assay: Effect of PGE2 on pre-contracted pulmonary artery rings; type: cell-based, human; conditions: tone induced with U-46619 (10-100nM), n=3 donors; cicaprost 0.1-1µM
Description: (§2) Rings (2-4mm internal diameter) were prepared from sections of pulmonary or coronary artery (n=3 each). They were mounted in organ baths under isometric conditions, in gassed Krebs solution (containing indomethacin) at 37°C, and 1-1.5g initial tone.
(§3) After at least 60min equilibration, tone was induced with U-46619 (10-100nM) in pulmonary artery or either phenylephrine (1-10µM) or endothelin-1 (-7M) in coronary artery.

[8] = test system: coronary artery; assay: Effect of PGE2 on pre-contracted coronary artery rings; type: cell-based, human; conditions: for relaxation of coronary artery: tone induced with phenylephrine (1-10µM) or endothelin-1, n=3 donors, cicaprost 0.1-1µM
Description: as §2, §3

In the case of `O=C(O)CCC/C=C\C[C@H]1[C@@H](OCc2ccc(-c3ccccc3)cc2)CC(=O)[C@@H]1N1CCOCC1` [AH22921], the pA2 [1] is given as 5.3, the “effect on EP receptor subtype EP1” value [2] is given as “no effect” and the “effect on EP receptor subtype EP2” value [3] is given as “no effect”. The “effect on EP receptor subtype EP3” value [4] was “no effect”.

For `O=C(O)CCC=CCCC1C(OCc2ccc(-c3ccccc3)cc2)CC(=O)C1N1CCOCC1` (centres unmarked) [AH23848], the “shift in the PGE2-mediated relaxation” value [5] is listed as “significant rightward shift”, the pA2 [1] is listed as 5.4 and the “effect on EP receptor subtype EP1” value [2] is listed as “no effect”. For the same compound, the “effect on EP receptor subtype EP2” value [3] was “no effect” and the “effect on EP receptor subtype EP3” value [4] was “no effect”.

In the case of `CC#CCC(C)[C@H](O)/C=C/[C@@H]1[C@H]2C/C(=C/CCCC(=O)O)C[C@H]2C[C@H]1O` (some centres unmarked) [Iloprost], the “effect on human cerebral artery rings contracted with phenylephrine” value (shortened to “effect … with phenylephrine”) [6] is reported as “induced relaxation”.

With `CCCCC[C@H](O)/C=C/[C@H]1C(=O)C[C@H](O)[C@@H]1C/C=C\CCCC(=O)O` [PGD2] the “effect … with phenylephrine” value [6] was “without effect”.

In the case of `CCCCC[C@H](O)/C=C/[C@H]1[C@H](O)CC(=O)[C@@H]1C/C=C\CCCC(=O)O` [PGE2, prostaglandin E2], the “relaxation of cerebral artery rings pre-contracted with 5-HT” value ([6]; 5-HT (300nM and 1µM), Figure 2B, 2C) is reported as “maximal or near maximal relaxation”, the “relaxation of cerebral artery rings pre-contracted with U46619” value ([6]; U46619 (100nM), Figure 2A) is reported as “maximal or near maximal relaxation” and the “concentration at which maximum relaxation occurs” value ([6]; cerebral blood vessel pre-contracted with phenylephrine, Figure 1) is reported as “below 10^-6 M”. The “effect on larger vessels” value ([6]; human cerebral artery, internal diameter > 1mm) was “concentration-related contraction”, the “effect on smaller vessels” value ([6]; pre-contracted human cerebral blood vessels, internal diameter < 1mm) was “potent concentration-related relaxation” and the “relaxation of pulmonary artery” value [7] was “did not cause relaxation”. For the same compound, the “contraction of coronary artery” value ([8]; pre-contracted coronary artery, likely due to activation of EP3 receptors) was “A small contraction” and the “relaxation of coronary artery” value [8] was “did not cause relaxation”.

With `CCCCC[C@H](O)/C=C/[C@@H]1[C@@H](C/C=C\CCCC(=O)O)[C@@H](O)C[C@H]1O` [PGF2α] the “effect … with phenylephrine” value [6] was “without effect”.

In the case of `CCC#CC[C@H](C)[C@H](O)C#C[C@@H]1[C@H]2C/C(=C/COCC(=O)O)C[C@H]2C[C@H]1O` [cicaprost], the “effect … with phenylephrine” value [6] is reported as “induced relaxation”, the “relaxation of pulmonary artery” value [7] is reported as “induced a relaxation in all preparations” and the “relaxation of coronary artery” value [8] is reported as “induced a relaxation in all preparations”.
